According to patent US20260355132A1, “POLYMORPHIC FORMS OF EPINEPHRINE MALONATE” (Biothea Pharma, Inc., priority 2023, published 2026):
Where a name gives a salt, the structure may show the parent alone.

Key:
Type in all cases: physicochemical
[1] = Stability profile of epinephrine malonate salt (general description); details: 7, 14, 30, 60, 90, 120, or 150 days
[2] = Water solubility of epinephrine malonate salt (general description); details: no method given
[3] = Relative thermodynamic stability studies in EtOH, EtOH/water and IPA/water; solid-state form stability; details: for water activity (aw) at which the form is most-stable: room temperature; for relative humidity at which the form is kinetically stable: solid state, Form B once formed, Form C (days)
Procedure: Relative thermodynamic stability studies in EtOH (crystallization process solvent), EtOH/water and IPA/water were performed. […] The critical water activity for Forms A/B interconversion is between aw=0.4-0.55 (40-55% RH). The transition temperature (Tt) for the enantiotropically related Forms A/C is between RT-40 °C. […] Form C is kinetically stable in solid state (days) at <40% RH.

[4] = Kinetic solubility in water (HPLC); details: 20 °C; for amount nearly dissolved in 0.5 mL of added water: 0.5 mL water; for amount nearly dissolved in 0.5 mL of added water / Approximate Solubility (mg/0.5 mL) / Approximate Solubility / Approximate Solubility (g/mL): 30 min; for Approximate Solubility (mg/0.5 mL) / Approximate Solubility / Content of Salt in VF (mg) 30 min / Approximate Solubility (g/mL): water, HPLC; for Approximate Solubility / Approximate Solubility (g/mL): kinetic solubility
Procedure: The kinetic solubility of Form A epinephrine malonate salt and bitartrate salt was determined using the procedure described herein. The solid active pharmaceutical ingredient was allowed to equilibrate from 5 °C to ambient temperature for 1 h. Solids were weighed (0.76 g of malonate and 0.20 g of bitartrate) into 4-mL vials containing a magnetic polytetrafluoroethylene (PTFE) stir bar. Water (0.5 mL) was added and samples were stirred at 20 °C. Additional API was gradually added in small portions over 30 min until trace amount of residual solid was present. At 30 min, the content of the nearly dissolved sample was transferred to a volumetric flask (VF), diluted, subjected to HPLC analyses, and adjusted for initial volume of water used.
The HPLC analysis was conducted using an Agilent 1100 with a Phenomenx Gemini C18, 100×4.6 mm, 3.0 um column. The column temperature was 50 °C, wavelength 210 nm, and flow rate 1.2 mL/min. Mobile Phase A was 5:95 MeCN: Buffer and Mobile Phase B was 45:55 MeCN: Buffer.
The kinetic solubility of Form B was determined using the procedure described herein. The solid Form B was allowed to equilibrate from storage temperature (5 °C) to ambient temperature for 1 hour. Solids were weighed (0.025 g of Form B) into a 4-mL vial containing a magnetic PTFE stir bar. Water (0.5 mL) was added and the sample was stirred at 20 °C. Additional API was gradually added in small portions over 30 min until trace amount of residual solid was present. At 30 minutes, the content of the nearly dissolved sample was transferred to a volumetric flask (VF), diluted, subjected to HPLC analyses, and adjusted for initial volume of water used.

[5] = Dynamic vapor sorption (DVS); details: 25 °C, nitrogen carrier gas, 0-95% relative humidity
Procedure: Form A was subjected to DVS. DVS is a gravimetric technique that measures how quickly and how much of a solvent is absorbed by a sample such as a dry powder absorbing water. The test was conducted using a Surface Measurement Systems DVS Intrinsic Plus at a temperature of 25 °C and using nitrogen as a carrier gas. The relative humidity range spanned from 0-95% and the maximum equilibration time was 240 minutes. The relative humidity steps included 40-50-60-70-75-70-60-50-40-30-20-10-0-10-20-30-40-50-60-70-75-80-90-95-90-80-75-70-60-50-40-30-20-10-0%.
Form A was subjected to the increasing relative humidity until a change in mass occurred. Once a change in mass resulted, the relative humidity was lowered to determine stability of the resulting mass. The relative humidity was then increased again until another change in mass resulted. Once a change in mass resulted, the relative humidity was lowered to determine stability of the resulting mass.

[6] = pKa of epinephrine malonate salt Form A (general description); details: no method given
[7] = relative thermodynamic stability
[8] = listed as Epinephrine Malonate Form A

critical relative humidity for Forms A/B interconversion [3] | critical water activity for Forms A/B interconversion (aw) [3] | water activity (aw) at which the form is most-stable [3, 7] | relative humidity at which the form is kinetically stable [3] | amount nearly dissolved in 0.5 mL of added water [4] [mg] | Approximate Solubility (mg/0.5 mL) [4] [mg mg/0.5 mL] | Approximate Solubility [4] [mg/mL] | Content of Salt in VF (mg) 30 min [4] [mg] | SMILES | also measured
 |  |  |  |  |  |  |  | CNC[C@H](O)c1ccc(O)c(O)c1 [epinephrine malonate salt, epinephrine malonate] | stability profile [1]: favorable stability profile; water solubility compared with other epinephrine salts (maleate, fumarate, hemi sulfate, bitartrate, hydrochloride) ([2]; crystalline form): substantially higher
40-55 % RH | 0.4-0.55 | ≥ 0.55 | 0-80 % RH | 511 | ~511 | 1000 | 511 | CNC[C@H](O)c1ccc(O)c(O)c1 [Form B, epinephrine malonate] | relative humidity for solid-state transition from Form A to Form B ([3]; solid-state): ≥ 40 % RH; formation of Form B in solid state ([3]; solid-state, >55% RH): forms relatively quickly (hours) at >55% RH
 |  |  |  |  | ~259 | ~520 | 259.45 | CNC[C@H](O)c1ccc(O)c(O)c1 [Epinephrine Bitartrate, epinephrine bitartrate, reference compound] | amount nearly dissolved in 0.5 mL of added water ([4]; listed as bitartrate salt): 259 mg; Approximate Solubility (g/mL) ([4]; listed as bitartrate salt): ~ 0.52 g/mL
 |  |  | < 40 % RH |  |  |  |  | CNC[C@H](O)c1ccc(O)c(O)c1 [Form C, epinephrine malonate] | water activity (aw) at which the form is more stable at 40 °C ([3]; 40 °C, relative thermodynamic stability): 0
40-55 % RH | 0.4-0.55 | ≤ 0.4 |  | 912 |  |  |  | CNC[C@H](O)c1ccc(O)c(O)c1 [Form A, epinephrine malonate] | changes in mass during DVS [5]: Two changes in mass occurred; Approximate Solubility (g/mL) [4]: ~ 1.82 g/mL; Approximate Solubility [4, 8]: ~1820 mg/mL; Approximate Solubility (mg/0.5 mL) [4, 8]: ~911 mg mg/0.5 mL; Content of Salt in VF (mg) 30 min [4, 8]: 911.53 mg; pKa [6]: 5.47; solubility ([2]; water): ≥ 1140 mg/mL
